In ChEMBL document CHEMBL4665660, “A novel indirubin derivative that increases somatic cell plasticity and inhibits tumorigenicity” (Bioorg Med Chem, 2019):
Activity calls are given as the source filed them. The rule behind the calls is not given here.

Columns and labels:
[1] = Induction of cellularization in human primary myotube assessed as beta-actin level at 20 uM incubated for 72 hrs by Western blot analysis (reference value: 1.095); assay type: tissue-based
[2] = Induction of cellularization in human primary myotube assessed as alpha-tubulin level at 20 uM incubated for 72 hrs by Western blot analysis (reference value: 0.674); assay type: functional
[3] = Induction of cellularization in human primary myotube assessed as beta-actin level at 100 nM in presence of BIO incubated for 72 hrs by Western blot analysis (reference value: 1.095); assay type: tissue-based; conditions: 0.1 µM
[4] = Induction of cellularization in human primary myotube assessed as alpha-tubulin level at 100 nM in presence of BIO incubated for 72 hrs by Western blot analysis (reference value: 0.674); assay type: functional
HCT-116 [5] = experiment: Induction of apoptosis in human HCT-116 cells assessed as cleaved caspase-7 at 500 nM incubated for 72 hrs by Western blot assay (reference value: 0); assay type: functional
NIH3T3 [6] = experiment: Adipogenic activity in mouse NIH/3T3 cells assessed as […] in epinephrine-stimulated fatty acid release at 1 uM preincubated for 72 hrs followed by incubation with adipogenic factors for 10 days by colorimetric assay; assay type: functional, cell-based
[7] = Induction of cellularization in human primary myotube assessed as alpha-tubulin level at 1 uM incubated for 72 hrs by Western blot analysis (reference value: 0.674); assay type: functional
C2C12 [8] = experiment: Induction of cell cycle arrest in mouse C2C12 cells assessed as S phase at 1 uM incubated for 72 hrs by propidium iodide based flow cytometry (reference value: 10.5 %); assay type: functional
[9] = Toxicity in zebra fish embryo assessed as skeletal abnormalities at 20 to 40 uM; set-up: species or system Danio rerio; conditions: zebrafish, dose 20-40 µM
HCT-116 [10] = experiment: Induction of apoptosis in human HCT-116 cells assessed as cleaved PARP at 500 nM incubated for 72 hrs by Western blot assay (reference value: 1.127); assay type: functional
NIH3T3 [11] = experiment: Adipogenic activity in mouse NIH/3T3 cells assessed as increase in insulin-stimulated glucose uptake at 1 uM preincubated for 72 hrs followed by incubation with adipogenic factors for 10 days by […] probe based fluorescence assay; assay type: functional, cell-based; conditions: time 13.0 day
C2C12 [12] = experiment: Induction of cell cycle arrest in mouse C2C12 cells assessed as G1 phase at 1 uM incubated for 72 hrs by propidium iodide based flow cytometry (reference value: 61.2 %); assay type: functional
C2C12 [13] = experiment: Osteogenic activity in mouse C2C12 cells assessed as increase in plasticity at 1 uM preincubated for 72 hrs followed by incubation with osteogenic factor for 10 days by Alizarin red staining based light microscopy; assay type: functional, cell-based; conditions: time 13.0 day
C2C12 [14] = experiment: Induction of cell cycle arrest in mouse C2C12 cells assessed as G2/M phase at 1 uM incubated for 72 hrs by propidium iodide based flow cytometry (reference value: 19.3 %); assay type: functional
NIH3T3 [15] = experiment: Adipogenic activity in mouse NIH/3T3 cells assessed as increase in lipid accumulation at 1 uM preincubated for 72 hrs followed by incubation with adipogenic factors for 10 days by Oil red O staining based light microscopy; assay type: functional, cell-based; conditions: time 13.0 day
MDA-MB-231 [16] = experiment: Inhibition of cell invasion in human MDA-MB-231 cells at 50 nM incubated for 72 hrs by crystal violet staining based assay; assay type: functional
HCT-116 [17] = experiment: Cytotoxicity against human HCT-116 cells assessed as reduction in cell viability incubated for 72 hrs by MTT assay; assay type: functional, cell-based; conditions: HCT-116, 72 h
[18] = molecular target: Glycogen synthase kinase-3 beta (Homo sapiens) (UniProt P49841); experiment: Inhibition of GSK3beta (unknown origin) using PASVPPSPSLSRHSSPHQpSED as substrate at 1 uM preincubated for 10 mins followed by substrate addition and measured after 30 mins by TR-FRET assay relative to control
MDA-MB-231 [19] = experiment: Antimetastatic activity in human MDA-MB-231 cells xenografted in zebra fish at 10 uM incubated for 96 hrs by fluorescence microscopy; assay type: functional, cell-based
C2C12 [20] = experiment: Osteogenic activity in mouse C2C12 cells assessed as increase in osteoponin-expression at 1 uM preincubated for 72 hrs followed by incubation with osteogenic factor for 10 days by RT-PCR analysis; assay type: functional, cell-based; conditions: time 13.0 day
C2C12 [21] = experiment: Osteogenic activity in mouse C2C12 cells assessed as increase in alkaline phosphatase at 1 uM preincubated for 72 hrs followed by incubation with osteogenic factor for 10 days by fluorescence based assay; assay type: functional, cell-based; conditions: time 13.0 day
[22] = molecular target: T1, Aurora kinase A (Homo sapiens) (UniProt O14965); experiment: Inhibition of recombinant human N-terminal His-tagged Aurora A expressed in Sf21 cells using peptide substrate by TR-FRET assay
T1 sequence (whole entry): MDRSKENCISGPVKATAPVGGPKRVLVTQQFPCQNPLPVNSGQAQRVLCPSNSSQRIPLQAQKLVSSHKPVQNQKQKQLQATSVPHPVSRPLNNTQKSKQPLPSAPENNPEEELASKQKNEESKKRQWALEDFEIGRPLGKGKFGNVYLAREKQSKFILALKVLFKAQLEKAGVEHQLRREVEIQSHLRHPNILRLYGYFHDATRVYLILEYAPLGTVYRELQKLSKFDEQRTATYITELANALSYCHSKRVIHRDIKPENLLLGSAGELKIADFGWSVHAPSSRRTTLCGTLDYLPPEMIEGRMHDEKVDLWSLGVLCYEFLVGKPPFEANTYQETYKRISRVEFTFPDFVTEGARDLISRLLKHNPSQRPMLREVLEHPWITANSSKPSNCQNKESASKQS

[23] = Toxicity in zebra fish embryo assessed as reduction in swimming ability at 20 to 40 uM; set-up: species or system Danio rerio; conditions: zebrafish, dose 20-40 µM
C2C12 (Mus musculus) [24] = experiment: Induction of cellularization in mouse C2C12 myotube at 1 uM incubated for 72 hrs by microscopic analysis
[25] = molecular target: Glycogen synthase kinase-3 beta (Homo sapiens) (UniProt P49841); experiment: Inhibition of GSK3beta (unknown origin) using PASVPPSPSLSRHSSPHQpSED as substrate preincubated for 10 mins followed by substrate addition and measured after 30 mins by TR-FRET assay; conditions: time 40.0 mins
NIH3T3 [26] = experiment: Downregulation of alpha-SMA in mouse NIH-3T3 cells at 1 uM incubated for 72 hrs by Western blotting assay; assay type: functional, cell-based
[27] = Induction of cellularization in human primary myotube assessed as beta-actin level at 1 uM incubated for 72 hrs by Western blot analysis (reference value: 1.095); assay type: tissue-based
C2C12 [28] = experiment: Osteogenic activity in mouse C2C12 cells assessed as increase in mineralization at 1 uM preincubated for 72 hrs followed by incubation with osteogenic factor for 10 days; assay type: functional, cell-based; conditions: time 13.0 day
[29] = Toxicity in zebra fish embryo assessed as reduction in cell viability at 40 uM; set-up: species or system Danio rerio; conditions: zebrafish
NIH3T3 [30] = experiment: Downregulation of alpha-SMA in mouse NIH/3T3 cells at 1 uM incubated for 72 hrs by immunofluorescence microscopy; assay type: functional, cell-based
MDA-MB-231 [31] = experiment: Induction of apoptosis in human MDA-MB-231 cells assessed as cleaved PARP at 500 nM incubated for 72 hrs by Western blot assay (reference value: 0.519); assay type: functional
MDA-MB-231 [32] = experiment: Cytotoxicity against human MDA-MB-231 cells assessed as reduction in cell viability incubated for 72 hrs by MTT assay; assay type: functional, cell-based; conditions: MDA-MB-231, 72 h
[33] = molecular target: T1, Aurora kinase A (Homo sapiens); experiment: Inhibition of recombinant human N-terminal His-tagged Aurora A expressed in Sf21 cells using peptide substrate at 1 uM by TR-FRET assay relative to control
MDA-MB-231 [34] = experiment: Induction of apoptosis in human MDA-MB-231 cells assessed as cleaved caspase-7 at 500 nM incubated for 72 hrs by Western blot assay (reference value: 0.349); assay type: functional
C2C12 (Mus musculus) [35] = experiment: Induction of cellularization in mouse C2C12 myotube assessed as reduction in cell proliferation at 1 uM incubated for 72 hrs by EdU staining based inverted fluorescence microscopy
[36] = Induction of cellularization in human primary myotube assessed as alpha-tubulin level at 5 uM in presence of reversine incubated for 72 hrs by Western blot analysis (reference value: 0.674); assay type: functional
[37] = Induction of cellularization in human primary myotube assessed as beta-actin level at 5 uM in presence of reversine incubated for 72 hrs by Western blot analysis (reference value: 1.095); assay type: tissue-based

Sequence of Glycogen synthase kinase-3 beta (Homo sapiens) (P49841 whole entry, looked up): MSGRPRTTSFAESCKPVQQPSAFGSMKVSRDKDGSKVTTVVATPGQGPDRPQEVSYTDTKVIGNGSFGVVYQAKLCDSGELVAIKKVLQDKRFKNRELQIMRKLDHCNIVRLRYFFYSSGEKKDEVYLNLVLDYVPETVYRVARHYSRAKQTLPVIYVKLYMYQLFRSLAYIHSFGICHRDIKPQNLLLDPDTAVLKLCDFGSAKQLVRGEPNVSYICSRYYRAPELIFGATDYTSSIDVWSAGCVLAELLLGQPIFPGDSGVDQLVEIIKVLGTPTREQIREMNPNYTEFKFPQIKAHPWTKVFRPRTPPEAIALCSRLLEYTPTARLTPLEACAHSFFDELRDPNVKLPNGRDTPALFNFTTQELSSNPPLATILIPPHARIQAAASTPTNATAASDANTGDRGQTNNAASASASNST

Q: Which “fold change (FC)” value [1] does the source give for `COc1ccc(CNc2nc(NCc3ccc(OC)cc3)c3ncn(C(C)C)c3n2)cc1` [MYOSEVERIN] here?
A: 1.139

Q: What about the “fold change (FC)” value [2] of the same molecule?
A: 0

Q: What does the source list for `COC(=O)[C@H]1[C@H]2C[C@@H]3c4[nH]c5cc(OC)ccc5c4CCN3C[C@H]2C[C@@H](OC(=O)c2cc(OC)c(OC)c(OC)c2)[C@@H]1OC` [RESERPINE]?
A: fold change (FC) [3]: 1.388; fold change (FC) [4]: 0.758

Q: For `Cl.NCCO/N=C1/C(=C2/C(=O)Nc3ccc([N+](=O)[O-])cc32)Nc2ccc(O)cc21`, which “fold change (FC)” value (HCT-116 [5]) is on record?
A: 1.115

Q: And the Activity (NIH3T3 [6])?
A: Active

Q: What about the “fold change (FC)” value [7] of the same molecule?
A: 1.064

Q: And the Activity (C2C12 [8])?
A: 18%

Q: What about the Activity [9] of the same molecule?
A: Toxic

Q: What about the “fold change (FC)” value (HCT-116 [10]) of the same molecule?
A: 1.129

Q: And the Activity (NIH3T3 [11])?
A: Active

Q: What about the Activity (C2C12 [12]) of the same molecule?
A: 33.6%

Q: What about the Activity (C2C12 [13]) of the same molecule?
A: Active

Q: What about the Activity (C2C12 [14]) of the same molecule?
A: 35%

Q: What about the Activity (NIH3T3 [15]) of the same molecule?
A: Active

Q: What about the inhibition (MDA-MB-231 [16]) of the same molecule?
A: Active

Q: And the IC50 (HCT-116 [17])?
A: 302 nM

Q: And the inhibition [18]?
A: 99.8%

Q: What about the Activity (MDA-MB-231 [19]) of the same molecule?
A: Active

Q: What about the Activity (C2C12 [20]) of the same molecule?
A: Active

Q: What about the Activity (C2C12 [21]) of the same molecule?
A: Active

Q: What about the inhibition [22] of the same molecule?
A: Dose-dependent effect

Q: And the Activity [23]?
A: Toxic

Q: What about the Activity (C2C12 (Mus musculus) [24]) of the same molecule?
A: Active

Q: And the inhibition [25]?
A: Dose-dependent effect

Q: What about the Activity (NIH3T3 [26]) of the same molecule?
A: Active

Q: And the “fold change (FC)” value [27]?
A: 1.451

Q: What about the Activity (C2C12 [28]) of the same molecule?
A: Active

Q: And the Activity [29]?
A: Toxic

Q: And the Activity (NIH3T3 [30])?
A: Active

Q: And the “fold change (FC)” value (MDA-MB-231 [31])?
A: 1.962

Q: And the IC50 (MDA-MB-231 [32])?
A: 738 nM

Q: And the inhibition [33]?
A: 47.7%

Q: What about the “fold change (FC)” value (MDA-MB-231 [34]) of the same molecule?
A: 0.674

Q: What about the Activity (C2C12 (Mus musculus) [35]) of the same molecule?
A: Active

Q: Which results are given for `O=C1Nc2cc(Br)ccc2/C1=C1/Nc2ccccc2/C1=N\O` [6BIO]?
A: fold change (FC) [36]: 0.758; fold change (FC) [37]: 1.388
